Data: PMC10496123, “Potent Antifungal Activity of Penta-O-galloyl-β-D-Glucose against Drug-Resistant Candida albicans, Candida auris, and Other Non-albicans Candida Species” (ACS Infectious Diseases, 2023)
≈ marks a conversion by molar mass, not a printed value. Where “and” joins values, the source holds several entries; their conditions need not be identical. Identical values can stand only once.

Tests used:
humans = settings: balloon catheter, 3 mg/mL over 25 mL; cited from earlier work
Candida albicans = assay: Growth inhibition by CLSI microbroth dilution; assay type: cell-based; settings: for MIC / IC50: Candida albicans, 48 h; for MIC: >90% growth inhibition
Candida parapsilosis = assay: Growth inhibition by CLSI microbroth dilution; assay type: cell-based; settings: for IC50 / MIC: 48 h; for IC50: >50% growth inhibition; for MIC: >90% growth inhibition
C. albicans [1] = assay: Concentration-response matrixes (checkerboard assays); assay type: cell-based, Candida albicans; settings: FICI at 90% growth inhibition, 48 h, 30 °C
C. albicans [2] = assay: Ergosterol binding assay (growth inhibition with exogenous ergosterol); assay type: cell-based, Candida albicans; settings: 80 μg mL^–1 exogenous ergosterol, 1×–4× MIC, 24 h
Procedure: Ergosterol binding was measured using a previously described method,[60] with some modifications. Briefly, ergosterol (TCI) was pulverized with a sterile pestle and mortar and then dissolved in 100% ethanol. The resultant emulsion was warmed at 37 °C for 15 min and then sonicated for 45 min prior to use. […] The negative control was untreated culture. A media blank was used to monitor for contamination. Experiments were repeated in triplicate with three technical replicates per treatment and on different days. page 5: Figure S4. Growth inhibition of penta-O-galloyl-β-D-glucose against C. albicans not affected by additional ergosterol. C. albicans was treated with PGG or […] mL-1). After 24 hours, treatment groups were measured for growth inhibition. The data are plotted as mean % growth inhibition ± SD as compared to vehicle controls from three independent experiments . Dotted line represents 90% growth inhibition . S5 (1 picture or pasted object on this page, not shown here)

mice = settings: 20 mg/kg/day orally in mice; cited from earlier work
MDA-MB-468 = system: MDA-MB-468; parameters: method as in PMID 33707603; settings: induction of apoptosis; cited from earlier work
C. auris CDC381 = assay: Iron supplementation growth inhibition assay; assay type: cell-based, Candida auris; settings: 10 mM iron (II) or iron (III); PGG 4–16 μg mL^–1; 48 h
Procedure: (§1) For iron supplementation assays, growth inhibition assays were performed by microbroth dilution following the guidelines set by the CLSI.[58] A solution of iron (II) sulfate and iron (III) sulfate (VWR) was dissolved in deionized water to a concentration of 10 mM and added to treated wells at the beginning of incubation. Growth inhibition was measured after 48 h. Percent growth inhibition was determined by comparing treatments to vehicle controls. Iron supplementation experiments were repeated in duplicate with three technical replicates per treatment and on different days.

MDA-MB-231 = system: MDA-MB-231; parameters: method as in PMID 33707603; settings: induction of apoptosis; cited from earlier work
HCT-116 cells = system: HCT-116 cells; parameters: method as in PMID 27196315, PMID 29778287; settings: inhibition of proliferation; cited from earlier work
HT-29 cells = system: HT-29 cells; parameters: method as in PMID 27196315, PMID 29778287; settings: inhibition of proliferation; cited from earlier work
C. glabrata CDC325 = assay: Iron supplementation growth inhibition assay; assay type: cell-based, Candida glabrata; settings: 10 mM iron (II) or iron (III); PGG 4–16 μg mL^–1; 48 h
Procedure: as §1

rats = settings: up to 120 mg/kg/day intravenously in rats; cited from earlier work
HaCaT cells = assay: CellTiter-Glo cell viability/proliferation (relative ATP); assay type: cell-based; settings: Homo sapiens, 24 h, read-out: IC50 (viable cell number, relative ATP)
Procedure: (§2) Hek293 cells were purchased from BEI Resources. HaCaT cells were purchased from ATCC. HepG2 cells were provided by Dr. Edward Morgan (Emory University). Mammalian cell cultures were maintained in Dulbecco’s modified Eagle’s medium with L-glutamine and 4.5 g L^–1 glucose (Corning) supplemented with 10% fetal bovine serum (Avantor) and a 100× combination solution of 10,000 IU mL^–1 penicillin and 10,000 μg mL^–1 streptomycin (Corning) at 37 °C, 5% CO2. Mammalian cultures at 70–80% confluency were used for cell viability and cytotoxicity experiments.
(§3) ATP content as a marker for the relative viable cell number was measured with the CellTiter-Glo Luminescent Cell Viability assay (Promega Corporation). The mammalian culture was standardized at 4 × 10^3 cells per 100 μL in a Costar 3610 white plate, clear bottom 96-well plates (Corning). Cells were allowed to attach and incubate for 24 h before growth media was replaced with treatment media (PGG, 16–512 μg mL^–1) or an equivalent volume of DMSO, followed by incubation for 24 h. After incubation with treatment, plates were equilibrated to room temperature for 1 h, and then 100 μL of CellTiter-Glo reagent was added to each well and mixed for 2 min. Plates were allowed to incubate at room temperature for 10 min before luminosity was measured with an integration time of 1 s via a BioTek Cytation3 plate reader. The relative viable cell number was measured by comparing treatment samples to untreated controls. Experiments were repeated in triplicate with three technical replicates per treatment and on different days.

HepG2 cells = assay: as above; assay type: cell-based; settings: Homo sapiens, HepG2, 24 h; read-out: IC50 (viable cell number reduced by 50%, relative ATP)
Procedure: as §2, §3

Hek293 cells = assay: as above; assay type: cell-based; settings: Homo sapiens, HEK293, 24 h; read-out: IC50 (viable cell number reduced by 50%, relative ATP)
Procedure: as §2, §3

[3] = system: Acinetobacter baumannii (various strains); parameters: method as in PMID 32948818; settings: antibacterial; possibly iron chelation; cited from earlier work
Candida glabrata = assay: Growth inhibition by CLSI microbroth dilution; assay type: cell-based; settings: for IC50 / MIC: Nakaseomyces glabratus, 48 h; for IC50: >50% growth inhibition; for MIC: >90% growth inhibition

## O=C(OC[C@H]1O[C@@H](OC(=O)c2cc(O)c(O)c(O)c2)[C@H](OC(=O)c2cc(O)c(O)c(O)c2)[C@@H](OC(=O)c2cc(O)c(O)c(O)c2)[C@@H]1OC(=O)c1cc(O)c(O)c(O)c1)c1cc(O)c(O)c(O)c1 [PGG, penta-O-galloyl-β-D-glucose]
humans
  Safety in humans: safely
Candida albicans; ATCC90028, strain ATCC 90028
  MIC: 1 µg/mL (≈ 1.06 µM)
Candida albicans; ATCC90028, strain ATCC 90028, lowest concentration with >50% growth inhibition
  IC50: 0.5 µg/mL (≈ 0.532 µM)
Candida albicans; strain MH12, >50% growth inhibition
  IC50: 0.25 µg/mL (≈ 0.266 µM)
Candida albicans; strain MH12
  MIC: 0.5 µg/mL (≈ 0.532 µM)
Candida albicans; two strains of C. albicans
  MIC (range over strains): 0.5 to 1.0 μg mL^–1
Candida parapsilosis; strain AR Bank #0335
  IC50: 1 µg/mL (≈ 1.06 µM)
  MIC: 4 µg/mL (≈ 4.25 µM)
Candida parapsilosis; strain AR Bank #0337
  IC50: 0.5 µg/mL (≈ 0.532 µM)
  MIC: 0.5 µg/mL (≈ 0.532 µM)
Candida parapsilosis; strain AR Bank #0338
  IC50: 0.25 µg/mL (≈ 0.266 µM)
  MIC: 0.5 µg/mL (≈ 0.532 µM)
Candida parapsilosis; strain AR Bank #0339
  IC50: 0.5 µg/mL (≈ 0.532 µM)
  MIC: 1 µg/mL (≈ 1.06 µM)
Candida parapsilosis; four strains of C. parapsilosis
  MIC (range over strains): 0.5 to 4.0 μg mL^–1
C. albicans [1]; C. albicans ATCC 90028
  Synergistic interaction with caspofungin: does not potentiate
C. albicans [1]; azole-tolerant clinical isolate CaCi-2
  Synergistic interaction with fluconazole: does not potentiate
C. albicans [2]
  Growth inhibitory activity with additional ergosterol: not affected
mice
  Tolerability: tolerated without ill effects
MDA-MB-468
  IC50/EC50: 35.72 µM
C. auris CDC381
  Reduction of the growth inhibitory activity on iron supplementation: 80–100%
MDA-MB-231
  IC50/EC50: 50.23 µM
HCT-116 cells
  IC50/EC50: 1.61 µM
HT-29 cells
  IC50/EC50: 4.46 µM
C. glabrata CDC325
  Reduction of the growth inhibitory activity on iron supplementation: 80–100%
rats
  Tolerability: no ill effects
HaCaT cells
  IC50: 32 µg/mL and 34 µM
HepG2 cells
  IC50: 68 µM and 64 µg/mL
Hek293 cells
  IC50: 64 µg/mL and 68 µM
[3]
  IC50/EC50: 16 to 64 µg/mL
Candida glabrata; strain AR Bank #0325
  IC50: 0.25 µg/mL (≈ 0.266 µM)
  MIC: 0.5 µg/mL (≈ 0.532 µM)
Candida glabrata; strain AR Bank #0326
  IC50: 0.125 µg/mL (≈ 0.133 µM)
  MIC: 0.25 µg/mL (≈ 0.266 µM)
Candida glabrata; two strains of C. glabrata
  MIC (range over strains): 0.25 to 0.5 μg mL^–1
